Test results: the supplement of paper PMC10307832

How the values were obtained:
Assay in all cases: relative viability (nuclei count vs DMSO), 5 days (fraction); higher = more cells survive
[1] = compound: Cn1cc(-c2cnn3c(N)c(Br)c([C@@H]4CCCNC4)nc23)cn1
In short: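 Five library-drug doses spaced by √10 were pinned onto vehicle-anchored 1536-well plates of lung cancer cell lines that had been kept overnight at 37 °C. Cells went 5 days without medium change, then were fixed, permeabilised and Hoechst-stained together, imaged at 4× and counted by MetaXpress. Viability is the ratio of treated-well to vehicle-well nuclei, taken as a median over plates. Plates required control CV below 25% and at least one doubling.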

[2] = compound: Cn1cc(-c2cnn3c(N)c(Br)c([C@@H]4CCCNC4)nc23)cn1 + Cc1cc(Nc2cc(N3CCN(C)CC3)nc(Sc3ccc(NC(=O)C4CC4)cc3)n2)n[nH]1 [Tozasertib] (partner 0.1 µM)
In short: (§1)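 Lung cancer cell lines were seeded in 1536-well plates and dosed by pin tool the next day, with either a single drug or a fixed anchor-drug dose combined with five library-drug doses (not always all listed) spaced in √10 steps. Five days later, one step fixed the cells and stained their nuclei (final 0.05% Triton X-100, 1% formaldehyde, 1 ug/ml Hoechst), and nuclei were counted on 4× images. Relative viability is the nuclei count in treated wells divided by the count in vehicle wells, and each value is the median of duplicate plates.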

[3] = compound: Cn1cc(-c2cnn3c(N)c(Br)c([C@@H]4CCCNC4)nc23)cn1 + CC(=O)Nc1cccc(-n2c(=O)n(C3CC3)c(=O)c3c(Nc4ccc(I)cc4F)n(C)c(=O)c(C)c32)c1 [Trametinib] (partner 0.02 µM)
In short: as §1

[4] = compound: Cn1cc(-c2cnn3c(N)c(Br)c([C@@H]4CCCNC4)nc23)cn1 + NC(=O)Nc1cc(-c2cccc(F)c2)sc1C(=O)N[C@H]1CCCNC1 [AZD7762] (partner 0.2 µM)
In short: as §1

| Cell Line | relative viability ([1]; 0.05 µM) | relative viability ([1]; 0.1581 µM) | relative viability ([1]; 0.5 µM) | relative viability ([1]; 1.581 µM) | relative viability ([1]; 5 µM) | relative viability ([2]; first compound 0.05 µM) | relative viability ([2]; first compound 0.1581 µM) | relative viability ([2]; first compound 0.5 µM) | relative viability ([2]; first compound 1.581 µM) | relative viability ([2]; first compound 5 µM) | relative viability ([3]; first compound 0.05 µM) | relative viability ([3]; first compound 0.1581 µM) | relative viability ([3]; first compound 0.5 µM) | relative viability ([3]; first compound 1.581 µM) | relative viability ([3]; first compound 5 µM) | relative viability ([4]; first compound 0.05 µM) | relative viability ([4]; first compound 0.1581 µM) | relative viability ([4]; first compound 0.5 µM) | relative viability ([4]; first compound 1.581 µM) | relative viability ([4]; first compound 5 µM) |
| --- | --- | --- | --- | --- | --- | --- | --- | --- | --- | --- | --- | --- | --- | --- | --- | --- | --- | --- | --- | --- |
| NCI-H1755 | 1.07 | 1.06 | 1 | 0.887 | 0.882 | 0.715 | 0.619 | 0.648 | 0.54 | 0.489 | 0.783 | 0.802 | 0.744 | 0.782 | 0.765 | 0.518 | 0.511 | 0.416 | 0.4 | 0.307 |
| NCI-H2087 | 1.15 | 1.31 | 1.02 | 0.948 | 0.898 | 0.222 | 0.253 | 0.241 | 0.263 | 0.174 | 0.151 | 0.203 | 0.178 | 0.164 | 0.189 | 1.32 | 1.38 | 1.41 | 1.22 | 1.42 |
| NCI-H2228 | 1.08 | 1.1 | 0.927 | 0.6 | 0.554 | 0.249 | 0.221 | 0.205 | 0.211 | 0.124 | 0.717 | 0.563 | 0.5 | 0.282 | 0.239 |  |  |  |  |  |
| NCI-H727 | 0.964 | 1.07 | 0.941 | 0.82 | 0.57 | 0.695 | 0.489 | 0.806 | 0.503 | 0.468 | 0.394 | 0.412 | 0.366 | 0.404 | 0.348 | 0.591 | 0.52 | 0.512 | 0.536 | 0.472 |
| NCI-H650 | 0.994 | 0.875 | 1.03 | 0.844 | 0.715 | 0.732 | 0.753 | 0.821 | 0.654 | 0.603 | 0.913 | 1.01 | 0.957 | 0.901 | 0.82 | 0.954 | 0.923 | 1.1 | 1.04 | 0.928 |
| NCI-H520 | 0.897 | 0.998 | 0.899 | 0.904 | 0.717 | 0.471 | 0.397 | 0.41 | 0.444 | 0.342 | 0.685 | 0.642 | 0.591 | 0.699 | 0.542 |  |  |  |  |  |
| EBC-1 | 1.12 | 1.16 | 0.882 | 0.822 | 0.869 |  |  |  |  |  |  |  |  |  |  |  |  |  |  |  |
| NCI-H661 | 1.01 | 0.977 | 1.03 | 1.01 | 0.772 | 0.344 | 0.343 | 0.371 | 0.372 | 0.379 | 0.562 | 0.59 | 0.495 | 0.534 | 0.478 |  |  |  |  |  |
| NCI-H1299 | 1.03 | 1.07 | 1.01 | 0.926 | 0.795 |  |  |  |  |  |  |  |  |  |  |  |  |  |  |  |
| LK-2 | 1.04 | 0.951 | 0.836 | 0.729 | 0.711 | 0.196 | 0.17 | 0.162 |  | 0.161 | 0.974 | 1.05 | 0.719 | 0.626 | 0.625 | 0.303 | 0.408 | 0.33 | 0.315 | 0.209 |
| SK-LU-1 | 1.18 | 0.696 | 0.809 | 0.432 | 0.268 | 0.35 | 0.193 | 0.192 | 0.201 | 0.169 | 0.616 | 0.423 | 0.422 | 0.328 | 0.292 |  |  |  |  |  |
| COR-L23 | 1.08 | 1.26 | 1.11 | 0.803 | 0.45 | 0.201 | 0.158 | 0.211 | 0.163 | 0.102 | 0.694 | 0.671 | 0.582 | 0.437 | 0.232 |  |  |  |  |  |
| NCI-H1650 | 0.862 | 1.08 | 1.12 | 0.707 | 0.494 |  | 0.408 | 0.33 | 0.3 | 0.261 | 0.559 | 0.551 | 0.487 | 0.405 | 0.428 |  |  |  |  |  |
| IA-LM | 0.917 | 0.976 | 1.05 | 0.779 | 0.541 |  |  |  |  |  |  |  |  |  |  |  |  |  |  |  |
| NCI-H2009 | 1.03 | 1.05 | 0.981 | 0.931 | 0.858 | 0.745 | 0.702 | 0.651 | 0.565 | 0.448 | 0.272 | 0.284 | 0.271 | 0.252 | 0.224 |  |  |  |  |  |
| NCI-H1563 | 0.941 | 0.878 | 0.966 | 0.942 | 0.873 |  |  |  |  |  |  |  |  |  |  |  |  |  |  |  |
| SK-MES-1 | 1.09 | 1.08 | 0.979 | 0.606 | 0.34 | 0.987 | 0.675 | 0.57 | 0.268 | 0.137 | 0.595 | 0.567 | 0.607 | 0.346 | 0.222 |  |  |  |  |  |
| UMC-11 | 1.08 | 0.873 | 0.856 | 0.788 | 0.565 | 0.276 | 0.204 | 0.217 | 0.205 | 0.187 | 0.753 | 0.684 | 0.502 | 0.579 | 0.402 |  |  |  |  |  |
| ABC-1 | 0.938 | 0.988 | 0.758 | 0.566 | 0.455 | 0.159 | 0.156 | 0.219 | 0.127 | 0.136 |  |  |  |  |  | 0.689 | 0.984 | 0.755 | 0.599 | 0.5 |
| SW 1573 | 0.93 | 1.07 | 1.12 | 0.924 | 0.894 | 0.175 | 0.175 | 0.17 | 0.176 | 0.149 | 0.538 | 0.642 | 0.558 | 0.506 | 0.516 |  |  |  |  |  |
| NCI-H1792 | 0.869 | 1.08 | 0.96 | 0.575 | 0.835 |  |  |  |  |  | 0.409 | 0.6 | 0.536 |  | 0.513 | 0.613 | 1.3 | 0.729 |  | 0.412 |
| NCI-H2023 | 0.982 | 0.89 | 0.705 | 0.304 | 0.167 | 0.361 | 0.254 | 0.238 | 0.15 | 0.122 | 0.606 | 0.336 | 0.416 | 0.227 | 0.185 |  |  |  |  |  |
| COR-L 105 | 0.85 | 0.85 | 0.843 | 0.705 | 0.656 | 0.31 | 0.4 | 0.293 | 0.312 | 0.321 | 0.424 | 0.436 | 0.414 | 0.417 | 0.422 |  |  |  |  |  |
